Biological target: purified human, His-tagged PRC2 complex (Homo sapiens (Human), UniProt O75530)
Test: Hot Spot HMT assay, inhibition of PRC2 enzymatic activity
Type: biochemical
Conditions: 10 nM PRC2 complex, 1 μM 3H-SAM, core histone H3, 10-point dose-response
Excerpt: The assay uses purified human, His-tagged PRC2 complex, including N-terminal His-tagged EZH2 enzyme, N-terminal Flag-tagged embryonic ectoderm development protein (EED), N-terminal His-tagged suppressor of zeste 12 (SUZ12), N-terminal His-tagged AEBP2, and N-terminal His-tagged RbAp48. In this assay, the transfer of the tritiated methyl group from radiolabeled S-adenosyl methionine (SAM) to purified core histone protein by EZH2 is quantitated after filtration to determine the activity of the core PRC2 complex in the presence and absence of compound.
The initial starting concentration for the serial dilutions of each compound was 1.0 μM. […] SAH (S-(5-adenosyl)-L-homocysteine) was used as a positive control for assay validation.
An aliquot of each serial dilution of test compound was added to deep 384 well plate using Acoustic Technology instrument (Echo 550, LabCyte) containing reaction buffer (50 mM Tris-HCl (pH 8.)), 0.01% Brij35, 1 mM EDTA, 1 mM DTT, 1 mM PMSF and 1% DMSO), 10 nM purified PRC2 complex and 0.05 mg/ml core histone H3 in a 5 μl volume. The reaction was mixed gently and then pre-incubated for 20 min at 30° C. The enzymatic reaction was initiated by adding 1 μM S-Adenosyl-L-[methyl-^3H]methionine and incubated for 1 hr at 30° C. After 1 hr, the reaction product was detected using a filter binding method and the amount of tritiated H3 core histone was quantitated using a scintillation counter. […] Key: A=<100 nM; B=>100 nM-<500 nM; and C=>500 nM.

purified human, His-tagged PRC2 complex, sequence (O75530 whole entry): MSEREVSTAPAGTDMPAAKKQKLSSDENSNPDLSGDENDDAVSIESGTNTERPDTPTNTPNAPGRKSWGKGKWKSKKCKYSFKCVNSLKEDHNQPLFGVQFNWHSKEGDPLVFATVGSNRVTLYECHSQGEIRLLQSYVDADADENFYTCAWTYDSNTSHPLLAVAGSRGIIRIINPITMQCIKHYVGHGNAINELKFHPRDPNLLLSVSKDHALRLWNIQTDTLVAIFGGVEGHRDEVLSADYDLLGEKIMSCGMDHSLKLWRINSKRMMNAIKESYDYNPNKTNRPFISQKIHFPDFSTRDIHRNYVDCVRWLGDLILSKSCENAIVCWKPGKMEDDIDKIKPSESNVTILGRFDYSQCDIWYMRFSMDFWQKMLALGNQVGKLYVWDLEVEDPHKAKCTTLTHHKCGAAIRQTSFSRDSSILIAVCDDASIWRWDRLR
purified human, His-tagged PRC2 complex, sequence (Q15910 whole entry partner): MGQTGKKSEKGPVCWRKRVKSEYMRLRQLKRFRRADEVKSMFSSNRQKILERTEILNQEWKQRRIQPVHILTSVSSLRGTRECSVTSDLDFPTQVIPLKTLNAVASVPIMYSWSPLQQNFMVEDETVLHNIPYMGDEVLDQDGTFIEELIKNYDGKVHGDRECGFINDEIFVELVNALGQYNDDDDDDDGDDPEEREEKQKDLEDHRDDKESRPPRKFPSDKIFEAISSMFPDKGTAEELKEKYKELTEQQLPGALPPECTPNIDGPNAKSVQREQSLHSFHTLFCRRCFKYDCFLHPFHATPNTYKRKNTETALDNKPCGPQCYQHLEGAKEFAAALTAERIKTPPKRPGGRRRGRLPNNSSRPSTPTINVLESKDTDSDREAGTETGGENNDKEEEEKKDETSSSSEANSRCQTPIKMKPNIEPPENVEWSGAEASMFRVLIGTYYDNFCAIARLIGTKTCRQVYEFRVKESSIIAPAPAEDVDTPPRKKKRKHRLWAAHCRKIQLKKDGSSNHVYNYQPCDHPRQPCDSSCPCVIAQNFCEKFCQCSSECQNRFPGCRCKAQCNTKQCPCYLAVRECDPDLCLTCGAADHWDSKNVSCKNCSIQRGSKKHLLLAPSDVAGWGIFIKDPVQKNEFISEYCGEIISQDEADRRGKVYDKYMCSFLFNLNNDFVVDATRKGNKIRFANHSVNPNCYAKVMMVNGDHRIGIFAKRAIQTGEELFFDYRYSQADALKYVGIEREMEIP
purified human, His-tagged PRC2 complex, sequence (Q15022 whole entry partner): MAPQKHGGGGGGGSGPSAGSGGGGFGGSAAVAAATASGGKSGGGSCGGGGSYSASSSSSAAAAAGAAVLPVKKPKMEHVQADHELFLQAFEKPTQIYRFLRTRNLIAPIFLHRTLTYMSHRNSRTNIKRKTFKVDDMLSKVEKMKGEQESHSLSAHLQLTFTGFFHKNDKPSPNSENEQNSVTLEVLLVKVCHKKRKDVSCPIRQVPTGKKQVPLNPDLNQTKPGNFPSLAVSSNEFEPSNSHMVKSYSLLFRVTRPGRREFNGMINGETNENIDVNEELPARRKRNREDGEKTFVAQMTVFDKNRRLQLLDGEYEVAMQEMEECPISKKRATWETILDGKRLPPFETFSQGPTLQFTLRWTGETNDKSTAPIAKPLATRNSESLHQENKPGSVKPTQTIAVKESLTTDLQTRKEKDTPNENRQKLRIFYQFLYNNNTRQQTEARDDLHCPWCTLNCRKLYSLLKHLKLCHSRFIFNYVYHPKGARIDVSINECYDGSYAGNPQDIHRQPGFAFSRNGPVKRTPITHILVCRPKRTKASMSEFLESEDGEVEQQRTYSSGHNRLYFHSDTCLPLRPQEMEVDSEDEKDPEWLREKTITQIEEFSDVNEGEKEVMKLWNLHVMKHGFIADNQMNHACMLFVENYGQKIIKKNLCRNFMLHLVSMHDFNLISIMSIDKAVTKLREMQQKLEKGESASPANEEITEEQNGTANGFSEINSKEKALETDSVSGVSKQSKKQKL
purified human, His-tagged PRC2 complex, sequence (Q6ZN18 whole entry partner): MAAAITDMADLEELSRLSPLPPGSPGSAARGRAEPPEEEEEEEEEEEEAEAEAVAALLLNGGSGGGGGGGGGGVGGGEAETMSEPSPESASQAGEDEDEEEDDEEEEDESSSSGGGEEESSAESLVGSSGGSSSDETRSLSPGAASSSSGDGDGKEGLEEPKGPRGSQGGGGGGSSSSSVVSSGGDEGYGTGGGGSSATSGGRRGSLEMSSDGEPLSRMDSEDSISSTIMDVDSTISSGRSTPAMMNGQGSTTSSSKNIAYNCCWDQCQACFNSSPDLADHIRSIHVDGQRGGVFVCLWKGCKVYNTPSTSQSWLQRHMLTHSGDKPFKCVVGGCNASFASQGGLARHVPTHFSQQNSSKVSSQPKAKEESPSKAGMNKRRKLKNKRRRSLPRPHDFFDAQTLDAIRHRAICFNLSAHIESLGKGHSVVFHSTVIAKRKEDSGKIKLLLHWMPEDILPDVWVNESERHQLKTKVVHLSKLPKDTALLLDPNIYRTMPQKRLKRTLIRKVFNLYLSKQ
purified human, His-tagged PRC2 complex, sequence (Q09028 whole entry partner): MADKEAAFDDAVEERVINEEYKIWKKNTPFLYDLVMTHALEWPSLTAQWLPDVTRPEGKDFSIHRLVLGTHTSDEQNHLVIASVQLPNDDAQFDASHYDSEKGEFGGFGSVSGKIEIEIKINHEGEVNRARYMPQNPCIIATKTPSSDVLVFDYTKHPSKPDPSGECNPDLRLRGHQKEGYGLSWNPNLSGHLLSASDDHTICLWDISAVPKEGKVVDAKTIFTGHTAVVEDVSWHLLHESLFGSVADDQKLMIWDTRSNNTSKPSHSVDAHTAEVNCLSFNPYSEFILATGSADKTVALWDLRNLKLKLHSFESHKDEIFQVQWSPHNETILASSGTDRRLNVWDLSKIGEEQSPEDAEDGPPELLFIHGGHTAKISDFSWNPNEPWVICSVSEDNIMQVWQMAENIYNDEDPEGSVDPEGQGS

Compound | IC50 [nM]
Cc1cc(C2CCCN2)ccc1-c1cnc(NCc2c(F)ccc3c2CCO3)n2cc(C#N)nc12 (single isomer, unassigned) [Example 213, 5-(((5-fluoro-2,3-dihydrobenzofuran-4-yl)methyl)amino)-8-(2-methyl-4-(pyrrolidin-2-yl)phenyl)imidazo[1,2-c]pyrimidine-2-carbonitrile] | < 100
Cc1cc(C2CCCN2)ccc1-c1cnc(NCc2c(F)ccc3c2CCO3)n2cc(C#N)nc12 (single isomer, unassigned) [Example 214, 5-(((5-fluoro-2,3-dihydrobenzofuran-4-yl)methyl)amino)-8-(2-methyl-4-(pyrrolidin-2-yl)phenyl)imidazo[1,2-c]pyrimidine-2-carbonitrile] | < 100
Cc1cn(-c2cnc(NCc3c(F)ccc4c3CCO4)n3cc(C(=O)O)nc23)cn1 [Example 4, 5-(((5-fluoro-2,3-dihydrobenzofuran-4-yl)methyl)amino)-8-(4-methyl-1H-imidazol-1-yl)imidazo[1,2-c]pyrimidine-2-carboxylic Acid] | < 100
Cc1nn(C(C)C)cc1-c1cnc(NCc2c(F)ccc3c2CCO3)n2cc(C(=O)O)nc12 [Example 5, 5-(((5-fluoro-2,3-dihydrobenzofuran-4-yl)methyl)amino)-8-(1-isopropyl-3-methyl-1H-pyrazol-4-yl)imidazo[1,2-c]pyrimidine-2-carboxylic acid] | < 100
COc1cc(C)c(-c2cnc(NCc3c(F)ccc4c3CCO4)n3cc(C(=O)O)nc23)cn1 [Example 6, 5-(((5-fluoro-2,3-dihydrobenzofuran-4-yl)methyl)amino)-8-(6-methoxy-4-methylpyridin-3-yl)imidazo[1,2-c]pyrimidine-2-carboxylic acid] | 100 to 500
Cc1nc(C2CC2)ncc1-c1cnc(NCc2c(F)ccc3c2CCO3)n2cc(C(=O)O)nc12 [Example 7, 8-(2-cyclopropyl-4-methylpyrimidin-5-yl)-5-(((5-fluoro-2,3-dihydrobenzofuran-4-yl)methyl)amino)imidazo[1,2-c]pyrimidine-2-carboxylic acid] | < 100
Cc1c(-c2cnc(NCc3c(F)ccc4c3CCO4)n3cc(C(=O)O)nc23)cnn1C(C)C [Example 8, 5-(((5-fluoro-2,3-dihydrobenzofuran-4-yl)methyl)amino)-8-(1-isopropyl-5-methyl-1H-pyrazol-4-yl)imidazo[1,2-c]pyrimidine-2-carboxylic acid] | < 100
Cc1cc(-c2cnc(NCc3c(F)ccc4occc34)n3cc(C(=O)O)nc23)n(C)n1 [Example 9, 8-(1,3-dimethyl-1H-pyrazol-5-yl)-5-(((5-fluorobenzofuran-4-yl)methyl)amino)imidazo[1,2-c]pyrimidine-2-carboxylic acid] | < 100
Cc1cc(-c2cnc(NCc3cccc4c3CCO4)n3cc(C(=O)O)nc23)n(C)n1 [Example 10, 5-(((2,3-dihydrobenzofuran-4-yl)methyl)amino)-8-(1,3-dimethyl-1H-pyrazol-5-yl)imidazo[1,2-c]pyrimidine-2-carboxylic acid] | < 100
Cc1cc(-c2cnc(NCc3c(F)ccc4c3CCO4)n3cc(C(N)=O)nc23)n(C)n1 [Example 11, 8-(1,3-dimethyl-1H-pyrazol-5-yl)-5-(((5-fluoro-2,3-dihydrobenzofuran-4-yl)methyl)amino)imidazo[1,2-c]pyrimidine-2-carboxamide] | < 100
Cc1ncccc1-c1cnc(NCc2c(F)ccc3occc23)n2cc(C(N)=O)nc12 [Example 12, 5-(((5-fluorobenzofuran-4-yl)methyl)amino)-8-(2-methylpyridin-3-yl)imidazo[1,2-c]pyrimidine-2-carboxamide] | < 100
Cc1nn(C(C)C)cc1-c1cnc(NCc2c(F)ccc3c2CCO3)n2cc(C(N)=O)nc12 [Example 13, 5-(((5-fluoro-2,3-dihydrobenzofuran-4-yl)methyl)amino)-8-(1-isopropyl-3-methyl-1H-pyrazol-4-yl)imidazo[1,2-c]pyrimidine-2-carboxamide] | < 100
